ChEMBL document CHEMBL1144699 (Bioorg Med Chem, 2008)
Calls of active or inactive are those of the source. No cut-off for these calls is given here.

Columns and labels:
[1] = biological target: Mitogen-activated protein kinase 8 (Rattus norvegicus, UniProt P49185); experiment: Inhibition of JNK1 in rat H9c2 cells assessed as inhibition of anisomycin-induced cJun phosphorylation after 30 mins; assay type: cell-based
[2] = Lipophilicity, log D at pH 7.4; assay type: physicochemical; conditions: buffer
[3] = biological target: Mitogen-activated protein kinase 8 (Homo sapiens, UniProt P45983); experiment: Inhibition of human JNK1 by radiometric assay
Mitogen-activated protein kinase 8 (Homo sapiens, UniProt P45983), sequence (P45983 whole entry): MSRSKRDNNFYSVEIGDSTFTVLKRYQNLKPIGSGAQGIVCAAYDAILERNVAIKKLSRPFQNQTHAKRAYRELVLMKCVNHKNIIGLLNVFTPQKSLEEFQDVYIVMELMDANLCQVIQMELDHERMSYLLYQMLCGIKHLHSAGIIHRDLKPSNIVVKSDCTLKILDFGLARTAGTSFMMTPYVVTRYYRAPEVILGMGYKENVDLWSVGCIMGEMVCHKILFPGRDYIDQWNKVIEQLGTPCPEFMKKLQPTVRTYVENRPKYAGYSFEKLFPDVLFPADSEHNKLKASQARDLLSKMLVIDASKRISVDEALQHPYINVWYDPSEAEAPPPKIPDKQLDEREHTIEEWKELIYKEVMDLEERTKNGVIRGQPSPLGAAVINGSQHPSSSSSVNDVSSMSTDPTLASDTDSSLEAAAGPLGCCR

[4] = Metabolic stability in rat microsomes at 1 uM; assay type: ADME, Microsome; conditions: read-out: Stability
[5] = Metabolic stability in human microsomes at 1 uM; assay type: ADME, Microsome; conditions: read-out: Stability
[6] = Oral bioavailability in Wistar rat at 3 mg/kg; assay type: ADME, organism-based; conditions: in vivo
[7] = Volume of distribution at steady state in Wistar rat at 0.3 mg/kg, iv; assay type: ADME, organism-based; parameters: dose 0.3 mg/kg, route intravenous; conditions: in vivo, read-out: Vdss
[8] = AUC in Wistar rat at 3 mg/kg, po; assay type: ADME, organism-based; parameters: dose 3 mg/kg, route oral; conditions: plasma
[9] = Cmax in Wistar rat at 3 mg/kg, po; assay type: ADME, organism-based; parameters: dose 3 mg/kg, route oral; conditions: in vivo
Rattus norvegicus = experiment: Suppression of pressure-overload-induced cardiac hypertrophy in Wistar rat assessed as decrease in left ventricular weight to body weight ratio at 1 mg/kg, po once daily for 7 days; assay type: functional, organism-based; parameters: dose 1 mg/kg; conditions: Heart left ventricle
[10] = AUC in Wistar rat at 0.3 mg/kg, iv; assay type: ADME, organism-based; parameters: dose 0.3 mg/kg, route intravenous; conditions: plasma
[11] = Tmax in Wistar rat at 3 mg/kg, po; assay type: ADME, organism-based; parameters: dose 3 mg/kg, route oral; conditions: in vivo
[12] = Total clearance in Wistar rat at 0.3 mg/kg, iv; assay type: ADME, organism-based; parameters: dose 0.3 mg/kg, route intravenous; conditions: in vivo

Mitogen-activated protein kinase 8 (Rattus norvegicus, UniProt P49185), sequence (P49185 whole entry): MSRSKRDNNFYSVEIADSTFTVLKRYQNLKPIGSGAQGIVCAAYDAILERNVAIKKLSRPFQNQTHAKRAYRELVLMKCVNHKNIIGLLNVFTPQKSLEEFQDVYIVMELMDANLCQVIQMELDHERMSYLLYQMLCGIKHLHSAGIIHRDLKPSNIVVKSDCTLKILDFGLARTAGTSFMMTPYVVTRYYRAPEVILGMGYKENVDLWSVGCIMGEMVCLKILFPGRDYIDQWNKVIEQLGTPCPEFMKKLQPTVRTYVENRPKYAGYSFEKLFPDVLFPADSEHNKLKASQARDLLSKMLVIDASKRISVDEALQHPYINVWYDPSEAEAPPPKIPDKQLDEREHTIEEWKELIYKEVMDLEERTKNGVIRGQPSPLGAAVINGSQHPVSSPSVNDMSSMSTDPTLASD

IC50 [1] [nM]	logD [2]	IC50 [3] [nM]	microsomal CLint at 1 µM [4] [µL/min/mg]	microsomal CLint at 1 µM [5] [µL/min/mg]	SMILES	further results
2300					CCC(=O)c1c(-c2ccccc2)c2cc(Cl)ccc2c(=O)n1Cc1ccc(C(=O)O)cc1	
2600					COC(=O)c1c(-c2ccccc2)c2cc(Br)ccc2c(=O)n1Cc1ccc(S(C)(=O)=O)cc1	
670	4.08	11	110	35	CCC(=O)c1c(-c2ccccc2)c2cc(Cl)ccc2c(=O)n1Cc1cc(C(N)=O)n(CC)n1	
480	4.19	10	52	36	CCC(=O)c1c(-c2ccccc2)c2cc(Cl)ccc2c(=O)n1Cc1cc(S(C)(=O)=O)n(CC(F)F)n1	
		6.8			CCC(=O)c1c(-c2ccccc2)c2cc(Cl)ccc2c(=O)n1Cc1cn(C(=O)NC)c(C)n1	
720	4.35	6.4	89	44	CCC(=O)c1c(-c2ccccc2)c2cc(Cl)ccc2c(=O)n1Cc1cc(C(=O)NC2CC2)n(C)n1	bioavailability [6]: 15%; Vd [7]: 3.54 L/kg; AUC [8]: 340 ng·h/mL; Cmax [9]: 47.1 ng/mL; Activity (Rattus norvegicus): Active; AUC [10]: 234 ng·h/mL; Tmax [11]: 2 h; clearance [12]: 21.4 mL/min/kg
2180	3.77	7.3	81	15	CCC(=O)c1c(-c2ccccc2)c2cc(Cl)ccc2c(=O)n1Cc1cc(C(N)=O)n(C)n1	
330	4.23	10	74	102	CCC(=O)c1c(-c2ccccc2)c2cc(Cl)ccc2c(=O)n1Cc1cc(S(C)(=O)=O)n(CCC(C)(C)O)n1	
	4.51	8.6			CCNC(=O)n1ccc(Cn2c(C(=O)CC)c(-c3ccccc3)c3cc(Cl)ccc3c2=O)n1	
1140	4.66	10		14	CCC(=O)c1c(-c2ccccc2)c2cc(Cl)ccc2c(=O)n1Cc1cc(C(=O)NC2CC2)n(CC(F)F)n1	
730	3.79	7.6	80	70	CCC(=O)c1c(-c2ccccc2)c2cc(Cl)ccc2c(=O)n1Cc1cc(S(C)(=O)=O)n(CC(C)=O)n1	
	3.5	33	74	37	CCC(=O)c1c(-c2ccccc2)c2cc(Cl)ccc2c(=O)n1Cc1cc(C(=O)NC)n[nH]1	
		28			CCC(=O)c1c(-c2ccccc2)c2cc(Cl)ccc2c(=O)n1Cc1ccc(S(C)(=O)=O)cc1	
	4.45	43	60	43	CCNC(=O)n1cc(Cn2c(C(=O)CC)c(-c3ccccc3)c3cc(Cl)ccc3c2=O)cn1	
1050	3.42	8.2		14	CCC(=O)c1c(-c2ccccc2)c2cc(Cl)ccc2c(=O)n1Cc1cc(S(C)(=O)=O)n(CC(N)=O)n1	
260	3.97	9.4	177	79	CCC(=O)c1c(-c2ccccc2)c2cc(Cl)ccc2c(=O)n1Cc1cc(C(=O)NC)n(C)n1	
	3.91	11	230	250	CCC(=O)c1c(-c2ccccc2)c2cc(Cl)ccc2c(=O)n1Cc1cc(C(=O)N(C)C)n(C)n1	
